Measurements: ChEMBL document CHEMBL3259619, “Antibacterial activity of a series of N2,N4-disubstituted quinazoline-2,4-diamines” (J Med Chem, 2014)
In brackets after ≈: the same amount, converted by molar mass. Activity calls are given as the source filed them.

Tests used:
Staphylococcus aureus [1] = experiment: Antimicrobial activity against methicillin-resistant Staphylococcus aureus CBD-635 assessed as zone of inhibition at 5 mg/ml after 24 hrs by disk diffusion assay; assay type: functional; settings: for zone of inhibition at 5000 µg/mL: CBD-635, 24 h, read-out: IZ
Staphylococcus aureus [2] = experiment: Antimicrobial activity against methicillin-resistant Staphylococcus aureus CBD-635 assessed as complete inhibition of bacterial growth at 5 times MIC after overnight incubation in presence of tetrahydrofolic acid; assay type: functional, organism-based
Staphylococcus aureus [3] = experiment: Antimicrobial activity against methicillin-resistant Staphylococcus aureus CBD-635 assessed as complete inhibition of bacterial growth after overnight incubation; assay type: functional

| SMILES | inhibition zone (IZ) (Staphylococcus aureus [1]) | inhibition (Staphylococcus aureus [2]) | zone of inhibition at 5000 µg/mL (Staphylococcus aureus [1]) [mm] | MIC (Staphylococcus aureus [3]) [µM] |
| --- | --- | --- | --- | --- |
| CNc1nc(NC2CC2)nc2ccccc12 | inactive | inactive | – | – |
| COc1cccc2nc(NC(C)C)nc(NCc3ccco3)c12 | – | inactive | 9 | > 80 |
| CC(C)Nc1nc(NCCO)nc2ccccc12 | inactive | inactive | – | – |
| CC(C)Nc1nc(NCc2ccccc2)nc2ccccc12 | – | inactive | 13 | 34 (≈ 9.94 µg/mL) |
| CC(C)Nc1nc(NCc2ccccc2)c2ccccc2n1 | – | inactive | 13 | 34 (≈ 9.94 µg/mL) |
| c1coc(CNc2nc(NC3CCC3)nc3ccccc23)c1 | inactive | inactive | – | – |
| CNc1nc(NCc2ccco2)nc2ccccc12 | – | inactive | 10 | 390 (≈ 99.2 µg/mL) |
| CC(C)Nc1nc(NC2CCCC2)c2ccccc2n1 | – | inactive | 10 | 37 (≈ 10 µg/mL) |
| CC(C)Nc1nc(NC2CC2)c2ccccc2n1 | inactive | inactive | – | – |
| COc1ccc2nc(NC(C)C)nc(NCc3ccco3)c2c1 | – | inactive | 10 | 80 (≈ 25 µg/mL) |
| Clc1ccc(Nc2nc(NCc3ccco3)c3ccccc3n2)cc1 | – | inactive | 10 | 29 (≈ 10.2 µg/mL) |
| CCNc1nc(NC(C)C)c2ccccc2n1 | inactive | inactive | – | – |
| Cc1ccc(Nc2nc(NCc3ccco3)c3ccccc3n2)cc1 | – | inactive | 9 | 30 (≈ 9.91 µg/mL) |
| CCNc1nc(NC(C)C)nc2ccccc12 | inactive | inactive | – | – |
| CC(C)Nc1nc(NCc2ccco2)nc2ccccc12 | – | inactive | 12 | 35 (≈ 9.88 µg/mL) |
| CC(C)Nc1nc(N(C)C)c2ccccc2n1 | inactive | inactive | – | – |
| Clc1ccc(Nc2nc(NCc3ccco3)nc3ccccc23)cc1 | – | inactive | 10 | 29 (≈ 10.2 µg/mL) |
| Cc1ccc2nc(NC(C)C)nc(NCc3ccco3)c2c1 | inactive | inactive | – | – |
| CCNc1nc(NCc2ccco2)c2ccccc2n1 | inactive | inactive | – | – |
| CC(C)Nc1nc(NCC2CCCO2)c2ccccc2n1 (stereo not drawn) | inactive | inactive | – | – |

| SMILES | inhibition zone (IZ) (Staphylococcus aureus [1]) | inhibition (Staphylococcus aureus [2]) | zone of inhibition at 5000 µg/mL (Staphylococcus aureus [1]) [mm] | MIC (Staphylococcus aureus [3]) [µM] |
| --- | --- | --- | --- | --- |
| CSCCNc1nc(NC(C)C)nc2ccccc12 | – | inactive | 9 | > 360 |
| CC(C)Nc1nc(NCc2ccco2)c2cc(Cl)ccc2n1 | – | inactive | 11 | 32 (≈ 10.1 µg/mL) |
| CC(C)Nc1nc(NC(C)C)c2ccccc2n1 | inactive | inactive | – | – |
| Cc1cccc2c(NCc3ccco3)nc(NC(C)C)nc12 | – | inactive | 10 | 340 (≈ 101 µg/mL) |
| c1ccc(Nc2nc(Nc3ccccc3)c3ccccc3n2)cc1 | – | inactive | 10 | 32 (≈ 10 µg/mL) |
| CC(C)Nc1nc(NC2CCCC2)nc2ccccc12 | – | inactive | 8 | 190 (≈ 51.4 µg/mL) |
| CC(C)Nc1nc(NCc2ccco2)c2ccc(Cl)cc2n1 | – | inactive | 12 | 32 (≈ 10.1 µg/mL) |
| c1coc(CNc2nc(NC3CCCCC3)nc3ccccc23)c1 | – | inactive | 10 | 78 (≈ 25.1 µg/mL) |
| CC(C)Nc1nc(NC2CC2)nc2ccccc12 | inactive | inactive | – | – |
| CCOC(=O)CNc1nc(NC(C)C)nc2ccccc12 | inactive | inactive | – | – |
| CNc1nc(NC(C)C)nc2ccccc12 | inactive | inactive | – | – |
| c1ccc(CNc2nc(NCc3ccco3)c3ccccc3n2)cc1 | – | inactive | 11 | 30 (≈ 9.91 µg/mL) |
| CC(C)Nc1nc(Nc2ccccc2)c2ccccc2n1 | – | inactive | 10 | 36 (≈ 10 µg/mL) |
| FC(F)(F)CNc1nc(NCc2ccco2)c2ccccc2n1 | inactive | inactive | – | – |
| COc1ccc2c(NCc3ccco3)nc(NC(C)C)nc2c1 | inactive | inactive | – | – |
| c1ccc(CNc2nc(Nc3ccccc3)c3ccccc3n2)cc1 | – | inactive | 10 | 31 (≈ 10.1 µg/mL) |
| CC(C)Nc1nc(NCc2ccco2)c2cccc(Cl)c2n1 | – | inactive | 10 | 32 (≈ 10.1 µg/mL) |
| CNc1nc(NCc2ccco2)c2ccccc2n1 | inactive | inactive | – | – |
| CC(C)Nc1nc(NC(C)(C)C)c2ccccc2n1 | inactive | inactive | – | – |
| CCCCNc1nc(Nc2ccccc2)nc2ccccc12 | – | inactive | 12 | 34 (≈ 9.94 µg/mL) |

| SMILES | inhibition zone (IZ) (Staphylococcus aureus [1]) | inhibition (Staphylococcus aureus [2]) | zone of inhibition at 5000 µg/mL (Staphylococcus aureus [1]) [mm] | MIC (Staphylococcus aureus [3]) [µM] |
| --- | --- | --- | --- | --- |
| COc1ccc(CNc2nc(NCc3ccccc3)c3ccc(Cl)cc3n2)cc1 | – | inactive | – | 22 (≈ 8.91 µg/mL) |
| CNc1nc(NC2CCCC2)nc2ccccc12 | inactive | inactive | – | – |
| CC(C)Nc1nc(NCc2ccco2)c2ccccc2n1 | – | inactive | 10 | 180 (≈ 50.8 µg/mL) |
| c1coc(CNc2nc(NC3CCCC3)nc3ccccc23)c1 | – | inactive | 12 | 160 (≈ 49.3 µg/mL) |
| CNc1nc(NCCO)nc2ccccc12 | inactive | inactive | – | – |
| CC(C)Nc1nc(NCC(F)(F)F)c2ccccc2n1 | inactive | inactive | – | – |
| Clc1ccc(CNc2nc(NCc3ccc(Cl)cc3)c3ccc(Cl)cc3n2)cc1 | – | inactive | – | 68 (≈ 30.2 µg/mL) |
| Cc1ccc2c(NCc3ccco3)nc(NC(C)C)nc2c1 | inactive | inactive | – | – |
| COc1cccc2c(NCc3ccco3)nc(NC(C)C)nc12 | inactive | inactive | – | – |
| OCCNc1nc(NCc2ccco2)c2ccccc2n1 | inactive | inactive | – | – |
| CC(C)Nc1nc(NCc2ccco2)c2c(Cl)cccc2n1 | – | inactive | 9 | > 78 |
| Cc1cccc2nc(NC(C)C)nc(NCc3ccco3)c12 | inactive | inactive | – | – |
| CNc1nc(NC(C)C)c2ccccc2n1 | inactive | inactive | – | – |
| CNc1nc(NC)c2ccccc2n1 | inactive | inactive | – | – |
| CC(C)(C)Nc1nc(NCc2ccco2)c2ccccc2n1 | – | inactive | 9 | 340 (≈ 101 µg/mL) |
| COc1ccc(CNc2nc(NCc3ccc(Cl)cc3)c3ccc(Cl)cc3n2)cc1 | – | inactive | – | 51 (≈ 22.4 µg/mL) |
| CCCCNc1nc(Nc2ccccc2)c2ccccc2n1 | – | inactive | 14 | 34 (≈ 9.94 µg/mL) |
| c1coc(CNc2nc(NC3CC3)nc3ccccc23)c1 | inactive | inactive | – | – |
